In PMC11358017, “Nucleotide metabolism in cancer cells fuels a UDP-driven macrophage cross-talk, promoting immunosuppression and immunotherapy resistance” (Nature Cancer, 2024):

Target: T1, P2Y6 (P2ry6^WT BMDMs) (Mus musculus, UniProt Q9ERK9)
T1 construct: native full-length receptor, endogenous in mouse bone marrow-derived macrophages (BMDMs); no tag
Test: Fura-2 intracellular calcium response, BMDMs, Hill fit
Type: cell-based
Conditions: agonist, native mouse BMDMs, peak F340/F380 normalized to ionomycin, pH 7.4, response absent in P2ry6^ΔMy BMDMs

T1 sequence (Q9ERK9 whole entry): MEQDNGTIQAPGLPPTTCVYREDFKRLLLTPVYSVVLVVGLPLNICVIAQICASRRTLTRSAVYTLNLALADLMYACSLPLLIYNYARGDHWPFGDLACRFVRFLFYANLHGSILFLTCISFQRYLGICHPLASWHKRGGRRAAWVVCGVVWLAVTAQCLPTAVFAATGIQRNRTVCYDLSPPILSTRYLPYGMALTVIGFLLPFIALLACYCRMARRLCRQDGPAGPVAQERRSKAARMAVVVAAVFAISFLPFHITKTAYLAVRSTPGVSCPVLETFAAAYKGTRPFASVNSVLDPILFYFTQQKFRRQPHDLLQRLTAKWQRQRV

EC50 (n = 6, possible conversion to UDP by ectonucleotidases) [nM]	EC50 (n = 3) [nM]	SMILES
103 ± 12		O=c1ccn([C@@H]2O[C@H](COP(=O)(O)OP(=O)(O)OP(=O)(O)O)[C@@H](O)[C@H]2O)c(=O)[nH]1 [UTP]
	42 ± 5	O=c1ccn([C@@H]2O[C@H](COP(=O)(O)OP(=O)(O)O)[C@@H](O)[C@H]2O)c(=O)[nH]1 [UDP]
